One assay addresses Mu-type opioid receptor (Rattus norvegicus, UniProt P33535). The assay can be described thus: Displacement of [3H]DAMGO from mu opioid receptor in rat brain membrane. Format: cell membranes. In general terms: Loss of bound radioactivity is the signal in a displacement assay; it reports binding, not function.
Another assay addresses Acetylcholinesterase (Electrophorus electricus, UniProt O42275). The assay can be described thus: Inhibition of electric eel AChE by Ellman's method.
The target of assay [1] is Delta-type opioid receptor (Rattus norvegicus, UniProt P33533). The assay can be described thus: Displacement of [3H][Ile5,6]deltorphin2 from delta opioid receptor in rat brain membrane. Format: cell membranes.
Assay [2] deals with Kappa-type opioid receptor (Cavia porcellus, UniProt P41144). The assay can be described thus: Displacement of [3H]U69593 from kappa opioid receptor in guinea pig brain membrane. Format: cell membranes.

What is called Ki is a measure of affinity in units of concentration, obtained from inhibition or displacement. A low value points to a stronger hold on the target. What is called IC50 is the concentration that inhibits the measured activity by half.

Sequence of Mu-type opioid receptor (P33535 whole entry): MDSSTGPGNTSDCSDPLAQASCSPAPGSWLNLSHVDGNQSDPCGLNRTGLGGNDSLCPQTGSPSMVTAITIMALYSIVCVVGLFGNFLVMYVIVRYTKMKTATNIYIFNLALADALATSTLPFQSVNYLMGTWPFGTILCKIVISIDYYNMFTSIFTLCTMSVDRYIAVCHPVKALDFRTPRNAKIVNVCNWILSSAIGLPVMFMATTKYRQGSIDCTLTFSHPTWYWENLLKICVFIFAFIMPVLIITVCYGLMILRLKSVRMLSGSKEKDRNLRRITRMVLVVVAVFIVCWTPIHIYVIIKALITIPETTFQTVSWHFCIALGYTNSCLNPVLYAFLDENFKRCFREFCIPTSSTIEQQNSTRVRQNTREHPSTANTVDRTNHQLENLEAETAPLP
Sequence of Delta-type opioid receptor (P33533 whole entry): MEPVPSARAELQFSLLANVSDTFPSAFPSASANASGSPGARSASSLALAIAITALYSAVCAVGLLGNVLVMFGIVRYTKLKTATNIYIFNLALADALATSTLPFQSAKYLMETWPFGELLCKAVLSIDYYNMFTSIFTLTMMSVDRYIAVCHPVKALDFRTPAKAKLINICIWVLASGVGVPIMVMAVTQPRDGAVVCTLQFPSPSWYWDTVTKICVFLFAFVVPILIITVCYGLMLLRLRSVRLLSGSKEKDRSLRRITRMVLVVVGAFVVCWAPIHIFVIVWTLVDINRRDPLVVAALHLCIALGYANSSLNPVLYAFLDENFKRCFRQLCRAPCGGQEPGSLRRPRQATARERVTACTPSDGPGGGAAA
Sequence of Kappa-type opioid receptor (P41144 whole entry): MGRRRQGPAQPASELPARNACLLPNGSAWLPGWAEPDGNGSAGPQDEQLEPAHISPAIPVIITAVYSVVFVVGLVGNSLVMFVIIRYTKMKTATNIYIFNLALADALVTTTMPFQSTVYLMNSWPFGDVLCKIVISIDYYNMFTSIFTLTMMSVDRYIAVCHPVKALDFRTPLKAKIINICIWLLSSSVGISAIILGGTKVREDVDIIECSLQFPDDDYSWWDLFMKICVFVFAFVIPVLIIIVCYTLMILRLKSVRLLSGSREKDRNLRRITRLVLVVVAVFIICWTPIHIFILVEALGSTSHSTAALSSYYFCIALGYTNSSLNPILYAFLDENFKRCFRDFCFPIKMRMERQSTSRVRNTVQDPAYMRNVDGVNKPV
Sequence of Acetylcholinesterase (O42275 whole entry): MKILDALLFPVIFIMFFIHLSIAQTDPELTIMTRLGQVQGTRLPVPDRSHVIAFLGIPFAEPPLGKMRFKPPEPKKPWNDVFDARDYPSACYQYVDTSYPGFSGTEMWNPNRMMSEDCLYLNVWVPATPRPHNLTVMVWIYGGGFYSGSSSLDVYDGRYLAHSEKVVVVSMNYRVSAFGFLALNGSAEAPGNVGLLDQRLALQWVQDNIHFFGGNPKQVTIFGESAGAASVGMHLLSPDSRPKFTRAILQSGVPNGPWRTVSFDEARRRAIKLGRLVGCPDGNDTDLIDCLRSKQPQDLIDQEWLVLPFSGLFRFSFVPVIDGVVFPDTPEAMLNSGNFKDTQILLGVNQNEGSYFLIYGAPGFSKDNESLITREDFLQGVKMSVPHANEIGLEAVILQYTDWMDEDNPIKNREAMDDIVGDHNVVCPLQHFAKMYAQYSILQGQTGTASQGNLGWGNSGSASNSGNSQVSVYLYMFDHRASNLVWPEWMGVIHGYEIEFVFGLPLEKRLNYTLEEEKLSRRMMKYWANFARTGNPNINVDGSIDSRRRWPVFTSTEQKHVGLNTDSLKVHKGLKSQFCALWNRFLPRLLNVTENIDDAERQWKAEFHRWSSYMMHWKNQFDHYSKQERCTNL

With `COC1CCC2C(Cc3cccc(O)c3)=NCCC2C1` (stereo unspecified), the Ki was 2320 nM at Mu-type opioid receptor, over 10000 nM in assay [1] and over 10000 nM in assay [2]. Besides, the IC50 on Acetylcholinesterase turned out to be 43100 nM.

On Acetylcholinesterase, `CO[C@@]12CCC(=O)[C@@H]3Oc4cccc5c4[C@@]31CCN(C)[C@@H]2C5` displayed an IC50 of 140000 nM.

Turning to `CCCCCCOc1cccc2c1[C@]13CCN(CC4CC4)[C@H](C2)[C@]1(OC)C=CC(=O)C3`, the IC50 against Acetylcholinesterase was 405000 nM.

Take `COc1cccc(CC2=NCCc3cc(OC)ccc32)c1`: inhibition at Acetylcholinesterase was half-maximal at 42900 nM (IC50).

As to `C=CCN1CC[C@]23CC(=O)CC[C@H]2[C@H]1Cc1cccc(OC(C)=O)c13`, the IC50 at Acetylcholinesterase is 193000 nM.

`O=CN1CC[C@]23CC(=O)CC[C@H]2[C@H]1CC1C(=O)C=CC(=O)C13` (stereo partly specified): the Ki on Mu-type opioid receptor is 0.46 nM; in assay [1], 12.2 nM; in assay [2], 43.2 nM. At Acetylcholinesterase, this compound gave an IC50 of 12700 nM.

In the case of `C=CCN1CC[C@]23CC(=O)CC[C@H]2[C@H]1Cc1cccc(OC)c13`, the Ki at Mu-type opioid receptor was found to be 6.55 nM; in assay [1] it was 217 nM; in assay [2] it was 113 nM.

In turn, `COc1ccc2c3c1O[C@H]1C(=O)CC[C@@]4(O)[C@@H](C2)N(C)CC[C@]314` [OXYCODONE] registered an IC50 against Acetylcholinesterase of 76200 nM.

Take `COc1cccc2c1[C@]13CCN(C)[C@H](C2)[C@]1(OC)CCC(=O)C3`: the Ki came out at 1.15 nM at Mu-type opioid receptor, 101 nM in assay [1] and 403 nM in assay [2]. Moreover, the IC50 against Acetylcholinesterase is 46200 nM.

Turning to `C=CCN1CC[C@@]23CCCC[C@@H]2[C@@H]1Cc1ccc(O)cc13` [DEXTALLORPHAN], the affinity at Acetylcholinesterase corresponds to a Ki of 20000 nM.

With `COC1=CCC2=C(CCNC2Cc2ccccc2O)C1` (stereo unspecified), the Ki (on Mu-type opioid receptor; in assay [1]; in assay [2]) was over 10000 nM in each case. This compound also showed an IC50 against Acetylcholinesterase of 138000 nM.

With `CN1CC[C@]23c4c5cccc4O[C@H]2C(=O)CC[C@@]3(O)[C@H]1C5`, 65300 nM corresponded to half-maximal inhibition against Acetylcholinesterase (IC50).

With `CCO[C@@]12CCC(=O)[C@]3(C)Oc4c(O)ccc5c4[C@@]31CCN(C)[C@@H]2C5`, the Ki on Mu-type opioid receptor is 0.1 nM; in assay [1], 4.8 nM; in assay [2] it was 10.2 nM.

For the compound `C=CCN1CC[C@]23CC(=O)CC[C@@]2(OC)[C@H]1Cc1cccc(OC)c13`, the Ki on Mu-type opioid receptor amounted to 2 nM; in assay [1] it was 210 nM; in assay [2], 567 nM.

Consider `CCO[C@@]12CCC(=O)C[C@@]13CCN(C)[C@@H]2Cc1cccc(O)c13`, for which the Ki amounted to 20.2 nM at Mu-type opioid receptor, 316 nM in assay [1] and 33.1 nM in assay [2]. It took 37100 nM to reach half-maximal inhibition at Acetylcholinesterase (IC50).

For `C=CCN1CC[C@]23CCCC[C@H]2[C@H]1Cc1ccc(O)cc13` [LEVALLORPHAN], the Ki on Acetylcholinesterase stood at 12000 nM.

With `CN1CC[C@@]23CCCC[C@@H]2[C@@H]1Cc1ccc(O)cc13` [DEXTRORPHAN], the affinity at Acetylcholinesterase corresponds to a Ki of 20000 nM.

For `O=CN1CC[C@]23c4c5cccc4O[C@H]2C(=O)CC[C@H]3[C@H]1C5`, the Ki (at Mu-type opioid receptor; in assay [1]; in assay [2]) was over 10000 nM in each case. This compound registered an IC50 at Acetylcholinesterase of 60300 nM.

Take `O=CN1CC[C@]23CC(=O)CC[C@H]2[C@H]1Cc1c(O)ccc(O)c13`: the Ki on Mu-type opioid receptor worked out at 67.2 nM; in assay [1] it was 1250 nM; in assay [2], 328 nM.

As to `CN1CC[C@]23CCCC[C@H]2[C@H]1Cc1ccc(O)cc13` [LEVORPHANOL], the affinity on Acetylcholinesterase corresponds to a Ki of 25000 nM.
